In article PMC4820309, “Pseudopterosin A: Protection of Synaptic Function and Potential as a Neuromodulatory Agent” (Marine Drugs, 2016):
Read-outs that look alike come from different tables or passages of the source.

What was measured:
[1] = system: Drosophila larval NMJ; assay: Synaptic transmission at the Drosophila larval NMJ during NaN3-induced oxidative stress (EJP recording until synaptic failure); type: cell-based, Drosophila melanogaster; settings: for average time until synaptic failure: mean ± SE
Protocol: (§1) This study used wild-type Canton-S Drosophila melanogaster third instar wandering larvae (~110 h old). All larvae were raised within an equal population density in 170 mL plastic culture bottles (~100 flies per bottle) containing 50 mL of Nutri-Fly Bloomington Formulation (Genessee Scientific, San Diego, CA, USA) fly food in an incubator at 25 °C under a 12 h:12 h light–dark light cycle.
(§2) Synaptic transmission was measured in Canton-S animals as previously described. Briefly, individual Canton-S third instar larvae were placed in a glass dissecting dish containing 2 mL of Schneider’s insect medium (Sigma, St. Louis, MO, USA) with the dorsal side up using standard insect pins. A longitudinal cut was made along the dorsal surface and the internal organs and central nervous system were removed to expose the underlying segmental muscles and nerves. An extracellular glass suction electrode was used to stimulate segmental nerves in muscle segments. The postsynaptic excitatory junction potential (EJP) was recorded from muscle 6 in abdominal segment A3 or A4 with a sharp intracellular glass recording electrode filled with 3 M KAc (~40 MΩ). The Schneider’s insect medium was replaced with 2 mL of hemolymph-like (HL-3) saline (1.5 mM CaCl2, 20 mM MgCl2, 5 mM KCl, 70 mM NaCl, 10 mM NaHCO3, 5 mM BES, 115 mM sucrose, 5 mM trehalose·2H2O) made fresh daily. EJP recordings were viewed with an oscilloscope and digitally stored using the Scope program (AD Instruments, Colorado Springs, CO, USA) for analysis. Evoked EJPs from repetitive stimulation (0.3 ms pulses delivered suprathreshold with a 1 Hz frequency) of both axons in larval muscle 6 were recorded in a stop-flow condition until synaptic transmission failure (amplitude < 1 mV).
(§3) The same electrophysiology preparation assay described above was performed; however, Canton-S larvae were also exposed to oxidative stress, Trolox, and PsA. Oxidative stress was induced in larval preparations by adding either 1 mM H2O2 or 75 µM NaN3 to the HL-3 saline (all chemicals obtained from Sigma, St. Louis, MO, USA). Larvae subjected to oxidative stress and simultaneous drug treatment included one of the following agents dissolved in DMSO: 5 µM Trolox or 1 µM PsA. A dose-response assay from 0.5 to 10 µM was performed to determine the effective concentration of PsA to prolong synaptic transmission at the Drosophila larval NMJ during oxidative stress exposure (Figure 3).
(§4) All synaptic function data were analyzed using SigmaPlot (Systat Software, San Jose, CA, USA) statistical analysis software. A one-way analysis of variance (ANOVA) test followed by a post hoc multiple comparisons procedure (Holm–Šidák) was used to compare significant differences across all treatment groups. Statistical significance (p < 0.05) was assigned using letter designations, where different letters show significant differences and the same letter assignments are not significant. The letter assignments begin with “A” representing the highest mean, “B” indicating the next highest, and so forth. All vertical bar charts are shown with the means ± SE.

[2] = system: Drosophila larval NMJ; assay: Synaptic transmission at the Drosophila larval NMJ during H2O2-induced oxidative stress (EJP recording until synaptic failure); type: cell-based, Drosophila melanogaster
Protocol: as §1, §2, §3, §4

[3] = system: mice; assay: Tolerability in mice after 50 mg/kg intravenous injection
[4] = Pharmacokinetics and tissue distribution of PsA in mice after IV bolus; type: in vivo, mouse; settings: for Kp / half-life: mouse, iv, 50 mg/kg; for AUC (AUClast): linear trapezoidal rule
Protocol: After spiking with 10 µL of 17β-estradiol (100 µg/mL), 100 µL plasma or […] of tissue homogenate (prepared as above) was mixed with 300 µL of acetonitrile and vortex-mixed for 15 s. The samples were then extracted with 0.6 mL of ethyl acetate. After centrifugation for 10 min at 2000× g, the upper organic layer was removed and evaporated to dryness under reduced pressure in a vacuum centrifuge. The residue obtained was reconstituted in 80 µL acetonitrile with ultrasonic treatment for 1 min and the derivatization was performed as follows.
The HPLC measurements were carried out using a Shimadzu LC-20AT liquid chromatography, which were coupled to a UV-SPD-M20A diode array detector. Data acquisition was performed using EZStart chromatography software package version 7.4. The chromatographic separation of NBD-Cl -derivative of PsA was achieved using Phenomenex Gemini 5 µm C18 110 Å column with a Phenomenex Security Guard C18 guard column (Torrance, CA, USA). The Mobile phase: A: 20 mM AcONH4 (pH = 7.4): ACN (2:1); B: CAN. Running program: 0–5 min, 80%–90% B; 5–7 min, 90% B; 7–12 min, 90%–100% B; 12–15 min, 100%–80% B. The mobile phase flow rate was 1.0 mL/min and the UV detection wavelength was set to 378 nm. Under the chromatographic conditions described, NBD-Cl derivatives of PsA and 17β-estradiol eluted at 7.3 and 5.5 min, respectively.
(Pharsight, Mountain View, CA, USA).

[5] = parameters: method as in PMID 22851883; settings: cited from earlier work
[6] = male, NIH Swiss, mouse brain, 50 mg/kg IV
[7] = male, NIH Swiss, mouse kidney, 50 mg/kg IV
[8] = male, NIH Swiss, mouse liver, 50 mg/kg IV
[9] = male, NIH Swiss, mouse plasma, 50 mg/kg IV bolus, estimate ± standard error

Cc1c(C)c2c(c(C)c1O)CCC(C)(C(=O)O)O2 (centres unmarked) [Trolox, 6-hydroxy-2,5,7,8-tetramethylchromane-2-carboxylic acid, reference compound]
increase of synaptic activity ([1]; Trolox 5 µM during NaN3 75 µM exposure, vs NaN3 alone): 25% | maximal time until synaptic breakdown ([1]; Trolox 5 µM with NaN3 75 µM): 64 min | average time until synaptic failure ([1]; Trolox 5 µM with NaN3 75 µM): 55 ± 3 min | increase of synaptic function ([2]; Trolox 5 µM during H2O2 1 mM exposure, vs H2O2 alone): 60% | maximal time until synaptic breakdown ([2]; Trolox 5 µM with H2O2 1 mM): 85 min | average time until synaptic transmission failure ([2]; Trolox 5 µM with H2O2 1 mM, mean ± SE): 80 ± 2 min

OO [H2O2, hydrogen peroxide]
average time until synaptic transmission failure ([2]; H2O2 1 mM alone, control 132 ± 3 min): 50 ± 2 min | maximal time of synaptic activity before failure ([2]; H2O2 1 mM alone, controls 136 or 139 min): 55 min

CC(C)=C[C@H]1C[C@H](C)[C@H]2CC[C@H](C)c3c(O[C@@H]4OC[C@@H](O)[C@H](O)[C@H]4O)c(O)c(C)c1c32 [PsA, pseudopterosin A]
tolerability of the dose [3]: well tolerated | increase of synaptic tolerance ([1]; PsA 500 nM during NaN3 75 µM exposure, vs NaN3 alone): 87% | average time until synaptic failure ([1]; PsA 500 nM with NaN3 75 µM): 83 ± 5 min | increase of synaptic functional tolerance ([1]; PsA 1 µM during NaN3 75 µM exposure, vs NaN3 alone): 152% | maximal synaptic failure time ([1]; PsA 1 µM with NaN3 75 µM): 122 min | average time until synaptic failure ([1]; PsA 1 µM with NaN3 75 µM, failure = EJP amplitude < 1 mV): 112 ± 4 min | increase of synaptic tolerance ([2]; PsA 1 µM during H2O2 1 mM exposure, vs H2O2 alone): 26% | maximal synaptic failure time ([2]; PsA 1 µM with H2O2 1 mM): 70 min | average time until synaptic transmission failure ([2]; PsA 1 µM with H2O2 1 mM, mean ± SE): 63 ± 2 min | Kp ([4]; male, NIH Swiss, brain / plasma, mouse brain, 50 mg/kg IV, read-out: Relative Exposure (AUCtissue/AUCplasma)): 1.36 | half-life ([4]; male, NIH Swiss, brain, mouse brain, 50 mg/kg IV, read-out: Half-life (converted)): 2.91 h | Kp ([4]; male, NIH Swiss, brain, liver, kidney / plasma, all tissues (brain, liver, kidney) vs plasma, 50 mg/kg IV, read-out: relative exposure (RE)): 1.27 to 1.36 | Kp ([4]; male, NIH Swiss, brain, liver, kidney / plasma, brain, liver and kidney during the elimination phase, 50 mg/kg IV, read-out: tissue/plasma concentration ratios): > 1 | Kp ([4]; male, NIH Swiss, kidney / plasma, mouse kidney, 50 mg/kg IV, read-out: Relative Exposure (AUCtissue/AUCplasma)): 1.28 | half-life ([4]; male, NIH Swiss, kidney, mouse kidney, 50 mg/kg IV, read-out: Half-life (converted)): 3.98 h | Kp ([4]; male, NIH Swiss, liver / plasma, mouse liver, 50 mg/kg IV, read-out: Relative Exposure (AUCtissue/AUCplasma)): 1.27 | half-life ([4]; male, NIH Swiss, liver, mouse liver, 50 mg/kg IV, read-out: Half-life (converted)): 3.16 h | half-life ([4]; male, NIH Swiss, plasma, brain, liver, kidney, mouse plasma and tissues (brain, liver, kidney), 50 mg/kg IV, read-out: elimination half-life): 3 to 4 h | half-life ([4]; male, NIH Swiss, plasma, mouse plasma, 50 mg/kg IV bolus, two-compartment model, estimate ± standard error, read-out: Distribution Half-life (converted)): 0.05 ± 0.005 h | half-life ([4]; male, NIH Swiss, plasma, mouse plasma, 50 mg/kg IV bolus, two-compartment model, estimate ± standard error, read-out: Elimination Half-life (converted)): 3.21 ± 0.3 h | Cmax [4, 6]: 10000 ng/g | Tmax [4, 6]: 0.5 h | Cmax [4, 7]: 3000 ng/g | Tmax [4, 7]: 1.5 h | Cmax [4, 8]: 10100 ng/g | Tmax [4, 8]: 0.17 h | AUC [4, 9]: 14400 ± 950 ng·h/mL | Cmax [4, 9]: 85.5 ± 7.64 µg/mL | clearance [4, 9]: 58 mL/min/kg | Vd ([4]; male, NIH Swiss, mouse plasma, 50 mg/kg IV bolus, estimate ± standard error, read-out: Vss): 10.1 ± 1.35 L/kg | time of peak mean concentration ([4]; mouse brain, 50 mg/kg IV): 30 min | AUC (AUClast) ([4]; mouse brain, 50 mg/kg IV): 19.49 mg·h/kg | time of peak mean concentration ([4]; mouse kidney, 50 mg/kg IV): 90 min | AUC (AUClast) ([4]; mouse kidney, 50 mg/kg IV): 18.37 mg·h/kg | time of peak mean concentration ([4]; mouse liver, 50 mg/kg IV): 10.2 min | AUC (AUClast) ([4]; mouse liver, 50 mg/kg IV): 18.20 mg·h/kg | lipophilicity [5]: high lipophilicity

[N-]=[N+]=[N-].[Na+] [NaN3, sodium azide, reference compound]
average time of synaptic activity until failure ([1]; NaN3 75 µM alone, control 130 ± 3 min): 44 ± 3 min | maximal time of synaptic activity before failure ([1]; NaN3 75 µM alone, controls 136 or 139 min): 52 min
